In patent publication US20200046835A1, “Systems, Methods, and Compositions For Cross-Linking Treatments of an Eye” (Avedro, Inc., priority 2014, published 2020):

Columns and labels:
corneal collagen [1] = assay: Papain digest fluorescence of pig corneal flaps (collagen cross-linking); settings: for fluorescence of the corneal samples after digestion with papain (excitation 360 nm), compared to controls not exposed to UV: phosphate buffer, UV 365 nm, 30 mW/cm^2, pulsed 1 s on:1 s off, 8 min, oxygen; for fluorescence (relative to untreated controls) recorded at 450 nm: FeSO4 0.5 mM added to 0.1% riboflavin
Procedure: Corneal flaps were soaked in either distilled water or diluted H2O2 (1%) for 20 minutes. Flaps soaked in H2O2 were either rinsed twice with distilled water or removed from H2O2 and placed in 0.1% FeSO4 solution in distilled water for an additional 20 minute soak followed by a 2× rinse with distilled water. Flaps were dried in a vacuum until the weight change became less than 10% (Rotary vane vacuum pump RV3 A652-01-903, BOC Edwards, West Sussex, UK). Each flap was digested for 2.5 hours at 65° C. with 2.5 units/ml of papain (from Papaya latex, Sigma) in 1 ml of papain buffer [EBBS (pH 7.0-7.2), 2 mM L-cysteine and 2 mM EDTA]. Papain digests were centrifuged for 5 seconds at 2200×G (Mini centrifuge 05-090-100, Fisher Scientific), diluted 0.5 times with BBBS and fluorescence of the solutions was measured with excitation of λex=360 nm in a QM-40 Spectrofluorometer (Photon Technology Int., London, Ontario, Canada). The fluorescence of the papain buffer was taken into account by measuring fluorescence in the absence of tissue and subtracting this value from the fluorescence of the samples. […]
(§1) Pig eyes were shipped overnight on ice from an abattoir (SiouxPreme, Sioux City, Iowa), rinsed in saline. Eyes were cleaned and epithelium was removed. […] If specified, eyes were placed in a beaker with a light oxygen stream for 2 minutes in the incubation chamber prior to irradiation. Corneas were pan-corneally irradiated with a top hat beam (3% root mean square) for the chosen time (4 or 8 minutes) with 365-nm light source (UV LED NCSU033B[T]; Nichia Co., Tokushima, Japan) at the chosen irradiance (30 mW/cm^2, pulsed or non-pulsed) which was measured with a power sensor (model PD-300-UV; Ophir, Inc., Jerusalem, Israel) at the corneal surface. Corneal flaps (approximately 200 μm thick) were excised from the eyes with aid of Intralase femtosecond laser (Abbot Medical Optics, Santa Ana, Calif.). The average thickness of the corneal flaps was calculated as a difference between the measurements before and after the excision from the eyes with an ultrasonic Pachymeter (DGH Technology, Exton, Pa.). The flaps were placed into a biaxial extensometer (CellScale Biotester 5000, Waterloo, ON), using biorake attachments with 5 tines spanning a width of 3 mm. Each sample was stretched at a constant rate of 4 μm/s in saline at 37° C. until sample failure. The flaps were washed with distilled water 2 times, dried with filter paper, washed with dH2O two times, and then dried in a vacuum until the weight change became less than 10% (Rotary vane vacuum pump RV3 A652-01-903, BOC Edwards, West Sussex, UK). Each flap was digested for 2.5 hours at 65° C. with 2.5 units/ml of papain (from Papaya latex, Sigma) in 1 ml of papain buffer [BBBS (pH 7.0-7.2), 2 mM L-cysteine and 2 mM EDTA]. Papain digests were centrifuged for 5 seconds at 2200×G (Mini centrifuge 05-090-100, Fisher Scientific), diluted 0.5 times with 1× BBBS and fluorescence of the solutions was measured with excitation of λex=360 nm in a QM-40 Spectrofluorometer (Photon Technology Int., London, Ontario, Canada). The fluorescence of the papain buffer was taken into account by measuring fluorescence in the absence of tissue and subtracting this value from the fluorescence of the samples.
(§2) Oxygen was supplied continuously to the beaker during the time of exposure.
as §2

corneal collagen [2] = assay: Biaxial extensometry (tensiometry) of pig corneal flaps; settings: for corneal stiffness (displacement-force diagrams): 1% solution in dH2O; for stiffening of corneal sample (displacement vs. force curves), compared to the unexposed controls: phosphate buffer, UV 365 nm, 30 mW/cm^2, pulsed 1 s on:1 s off, 8 min, oxygen
Procedure: as §1, §2
Oxygen was supplied continuously to the beaker during the time of exposure. Corneal flaps were cut at approximately 200 μm.
Pig eyes were shipped overnight on ice from an abattoir (SiouxPreme, Sioux City, Iowa), rinsed in saline. Eyes were cleaned and epithelium was removed. […] Corneas were pan-corneally irradiated with a top hat beam (3% root mean square) for 4 minutes with 365-nm light source (UV LED NCSU033B[T]; Nichia Co., Tokushima, Japan) at irradiance 30 mW/cm^2, which was measured with a power sensor (model PD-300-UV; Ophir, Inc., Jerusalem, Israel) at the corneal surface. Corneal flaps (approximately 200 μm thick) were excised from the eyes with aid of Intralase femtosecond laser (Abbott Medical Optics, Santa Ana, Calif.). The average thickness of the corneal flaps was calculated as a difference between the measurements before and after the excision from the eyes with an ultrasonic Pachymeter (DGH Technology, Exton, Pa.). The flaps were then placed into a biaxial extensometer (CellScale Biotester 5000, Waterloo, ON), using biorake attachments with 5 tines spanning a width of 3 mm. Each sample was stretched at a constant rate of 4 μm/s in saline at 37° C. until sample failure. The flaps were washed with distilled water, dried in a vacuum until the weight change became less than 10% (Rotary vane vacuum pump RV3 A652-01-903, BOC Edwards, West Sussex, UK). Each flap was digested for 2.5 h at 65° C. with 2.5 units/ml of papain (from Papaya latex, Sigma) in 1 ml of papain buffer [EBBS (pH 7.0-7.2), 2 mM L-cysteine and 2 mM EDTA].

corneal collagen [3] = assay: Papain digest fluorescence of pig corneal flaps (collagen cross-linking); settings: 0.1% in BBBS, de-oxygenated with argon, irradiated 4 min at 30 mW/cm^2 in CO2 atmosphere
human serum albumin = human serum albumin (Homo sapiens, UniProt P02768); settings: irradiated in the presence of human serum albumin; cited from earlier work
[4] = 0.4% in PBS, UVA 30 mW/cm2, 4 min CW or 8 min pulsed with O2

Sequence of human serum albumin (P02768 25-609): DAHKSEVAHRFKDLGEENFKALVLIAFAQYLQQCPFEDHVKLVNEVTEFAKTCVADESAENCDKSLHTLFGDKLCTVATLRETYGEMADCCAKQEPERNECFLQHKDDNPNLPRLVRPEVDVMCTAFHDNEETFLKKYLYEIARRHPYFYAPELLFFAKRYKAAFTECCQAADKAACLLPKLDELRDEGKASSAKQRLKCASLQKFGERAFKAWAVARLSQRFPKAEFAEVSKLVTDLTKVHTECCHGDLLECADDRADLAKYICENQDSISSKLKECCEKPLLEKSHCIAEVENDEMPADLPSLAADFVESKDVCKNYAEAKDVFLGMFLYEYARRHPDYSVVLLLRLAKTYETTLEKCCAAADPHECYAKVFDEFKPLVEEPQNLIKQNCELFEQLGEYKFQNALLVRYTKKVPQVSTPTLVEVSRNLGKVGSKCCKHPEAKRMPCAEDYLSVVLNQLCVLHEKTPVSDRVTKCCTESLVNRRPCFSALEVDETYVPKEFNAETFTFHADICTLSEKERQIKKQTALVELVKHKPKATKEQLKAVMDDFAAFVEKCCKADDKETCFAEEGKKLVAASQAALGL

With `CC(=O)C(C)=O` [2,3-butanedione] the “fluorescence output (relative to the untreated controls, Fo) recorded at 450 nm” value (corneal collagen [1]; 1% solution in dH2O, with UV light 365 nm, 30 mW for 4 min) was “increase”, the “fluorescence (relative to the untreated controls, Fo) recorded at 450 nm” value (corneal collagen [1]; 1% solution in dH2O, without UV light) was “does not cross-link corneal flaps” and the “corneal stiffness (displacement-force diagrams)” value (corneal collagen [2]; with UV light 365 nm, 30 mW for 4 min) was “increase”. For the same compound, the “corneal stiffness (displacement-force diagrams)” value (corneal collagen [2]; without UV light) was “does not cross-link corneal flaps”.
With `Cc1cc2nc(C(=O)[O-])c(=O)n(C[C@H](O)[C@H](O)[C@H](O)CO)c2cc1C.O.[Na+]` [sodium salt of 1,2-Dihydro-6,7-dimethyl-2-keto-1-D-ribityl-3-quinoxalinecarboxylic acid monohydrate] the “fluorescence of the digested corneas in the area 450 nm” value (corneal collagen [1]; 0.1% in BBBS, no epithelium, 20 min soak, 30 mW/cm^2 for 4 min continuous UVA) was “elevated fluorescence” and the “fluorescence of the digested corneal flaps (excitation 360 nm), compared with riboflavin” value (corneal collagen [3]) was “higher than the fluorescence of the corneal flaps cross-linked with riboflavin”.
For `Cc1c(C(=O)NCCO)[n+]([O-])c2ccccc2[n+]1[O-]` [Olaquindox, N-(2-hydroxyethyl)-3-methyl-2-quinoxalinecarboxamide 1,4-dioxide], the “relative fluorescence recorded at 450 nm of the cross-linked flaps” value (corneal collagen [1]; [4]) is listed as “acquired fluorescence at 450 nm”, the “time to complete disappearance on irradiation” value (human serum albumin) is listed as ≤ 20 s and the “stiffness by biaxial extensiometry of 200 μm thick corneal flaps” value (corneal collagen [2]; [4]) is listed as “became stiffer”.
With `Nc1nc2ncc(CNc3ccc(C(=O)N[C@@H](CCC(=O)O)C(=O)O)cc3)nc2c(=O)[nH]1` [FA, Folic acid] the “fluorescence of the corneal samples after digestion with papain (excitation 360 nm), compared to controls not exposed to UV” value (corneal collagen [1]) was “increases” and the “stiffening of corneal sample (displacement vs. force curves), compared to the unexposed controls” value (corneal collagen [2]) was “significant stiffening”.
For `OO` [H2O2, hydrogen peroxide], the “fluorescence counts of papain digested corneal flaps (cross-linking)” value (corneal collagen [1]; 1% H2O2 soak 20 min, with or without following 0.1% Iron(II) soak 20 min, no UV) was “not”.
In the case of `O=S(=O)([O-])[O-].[Fe+2]` [FeSO4, Iron(II) Sulfate], the “fluorescence (relative to untreated controls) recorded at 450 nm” value (corneal collagen [1]; CW UVA 30 mW/cm^2, 4 min) was “increase in fluorescence”, the “fluorescence (relative to untreated controls) recorded at 450 nm” value (corneal collagen [1]; PW+O2, UVA 30 mW/cm^2, 8 min (1 s on:1 s off)) was “increase in fluorescence” and the “average force vs. displacement measured by tensiometry (biaxial tension)” value (corneal collagen [2]; PW+O2, UVA 30 mW/cm^2, 8 min (1 s on:1 s off), versus 0.1% riboflavin) was “increase in biaxial tension”.
In the case of `Cc1cc2nc3c(=O)[nH]c(=O)nc-3n(C[C@H](O)[C@H](O)[C@H](O)CO)c2cc1C` [0.1% riboflavin, riboflavin], the “fluorescence of the corneal samples after digestion with papain (excitation 360 nm), compared to controls not exposed to UV” value (corneal collagen [1]) was “increases”, the “average force vs. displacement measured by tensiometry” value (corneal collagen [2]; CW UVA 30 mW/cm^2, 4 min, relative to controls) was “higher than the control group” and the “stiffening of corneal sample (displacement vs. force curves), compared to the unexposed controls” value (corneal collagen [2]) was “significant stiffening”.
